Earlier results in PubChem BioAssay AID1259409 (Chemical Carcinogenesis Research Information System (CCRIS), 2018).

Test system: rodent chemically induced tumor inhibition, incidence and multiplicity
Assay: CCRIS tumor inhibitor studies

Row | Structure (SMILES) | tumour outcome (control, treated, inhibition, significance) (Carcinogen: N-NITROSODIETHYLAMINE, 55-18-5, Dose [Inhibitor]: 0, 5% IN BASAL DIET BEGINNING AT 8 WK OF AGE AND CONTINUING FOR 22 MO (STUDY DURATION: 22 MO), Route [Inhibitor]: ORAL, Species: MOUSE, Strain/Sex: 6HF1/MALE, Target Tissue: Type of Lesion: ESOPHAGUS: SQUAMOUS CELL CARCINOMA, Dose [Carcinogen]: 100 MG/L IN DRINKING WATER DURING 11-13 WK OF AGE, Promoter: NONE USED) | tumour outcome (control, treated, inhibition, significance) (Carcinogen: N-NITROSODIETHYLAMINE, 55-18-5, Dose [Inhibitor]: 0, 5% IN BASAL DIET BEGINNING AT 8 WK OF AGE AND CONTINUING FOR 22 MO (STUDY DURATION: 22 MO), Route [Inhibitor]: ORAL, Species: MOUSE, Strain/Sex: 6HF1/MALE, Target Tissue: Type of Lesion: FORESTOMACH: SQUAMOUS CELL CARCINOMA, Dose [Carcinogen]: 100 MG/L IN DRINKING WATER DURING 11-13 WK OF AGE, Promoter: NONE USED) | tumour outcome (control, treated, inhibition, significance) (Carcinogen: N-NITROSODIETHYLAMINE, 55-18-5, Dose [Inhibitor]: 0, 5% IN BASAL DIET BEGINNING AT 8 WK OF AGE AND CONTINUING FOR 22 MO (STUDY DURATION: 22 MO), Route [Inhibitor]: ORAL, Species: MOUSE, Strain/Sex: 6HF1/MALE, Target Tissue: Type of Lesion: LIVER: TUMOR, Dose [Carcinogen]: 100 MG/L IN DRINKING WATER DURING 11-13 WK OF AGE, Promoter: NONE USED) | tumour outcome (control, treated, inhibition, significance) (Carcinogen: N-NITROSODIETHYLAMINE, 55-18-5, Dose [Inhibitor]: 0, 5% IN BASAL DIET BEGINNING AT 8 WK OF AGE AND CONTINUING FOR 22 MO (STUDY DURATION: 22 MO), Route [Inhibitor]: ORAL, Species: MOUSE, Strain/Sex: 6HF1/MALE, Target Tissue: Type of Lesion: LUNG: TUMOR, Dose [Carcinogen]: 100 MG/L IN DRINKING WATER DURING 11-13 WK OF AGE, Promoter: NONE USED) | tumour outcome (control, treated, inhibition, significance) (Carcinogen: 7,12-DIMETHYLBENZ[A]ANTHRACENE, 57-97-6, Dose [Inhibitor]: 0.03 MMOL/G DIET DAILY STARTING 8 D PRIOR TO AND CONTINUING THROUGH CARCINOGEN ADMINISTRATION FOLLOWED BY A 14 WK OBSERV, Route [Inhibitor]: ORAL, Species: RAT, Strain/Sex: SPRAGUE-DAWLEY/FEMALE, Target Tissue: Type of Lesion: MAMMARY GLAND: TUMOR, Dose [Carcinogen]: 12 MG IN 1 ML OLIVE OIL ONCE, Promoter: NONE USED) | tumour outcome (control, treated, inhibition, significance) (Carcinogen: 7,12-DIMETHYLBENZ[A]ANTHRACENE, 57-97-6, Dose [Inhibitor]: 0.1 MMOL IN 1 ML DIMETHYL SULFOXIDE ONCE 20 HR PRIOR TO CARCINOGEN ADMINISTRATION FOLLOWED BY A 14 WK OBSERVATION PERIOD, Route [Inhibitor]: GAVAGE, Species: RAT, Strain/Sex: SPRAGUE-DAWLEY/FEMALE, Target Tissue: Type of Lesion: MAMMARY GLAND: TUMOR, Dose [Carcinogen]: 12 MG IN 1 ML OLIVE OIL ONCE, Promoter: NONE) | tumour outcome (control, treated, inhibition, significance) (Carcinogen: 7,12-DIMETHYLBENZ[A]ANTHRACENE, 57-97-6, Dose [Inhibitor]: 0.1 MMOL IN 1 ML DIMETHYL SULFOXIDE ONCE 20 HR PRIOR TO CARCINOGEN ADMINISTRATION FOLLOWED BY A 14 WK OBSERVATION PERIOD, Route [Inhibitor]: GAVAGE, Species: RAT, Strain/Sex: SPRAGUE-DAWLEY/FEMALE, Target Tissue: Type of Lesion: MAMMARY GLAND: TUMOR, Dose [Carcinogen]: 12 MG IN 1 ML OLIVE OIL ONCE, Promoter: NONE USED) | tumour outcome (control, treated, inhibition, significance) (Carcinogen: BENZO[A]PYRENE, 50-32-8, Dose [Inhibitor]: 0.03 MMOL/G DIET DAILY STARTING AT 63 D OF AGE (8 D PRIOR TO START OF CARCINOGEN TREATMENT) THROUGH 98 D OF AGE FOLLOWED, Route [Inhibitor]: ORAL, Species: MOUSE, Strain/Sex: ICR/FEMALE, Target Tissue: Type of Lesion: FORESTOMACH: TUMOR, Dose [Carcinogen]: 1 MG IN 0.2 ML CORN OIL ADMINISTERED 2/WK FOR 4 WK, Promoter: NONE USED) | tumour outcome (control, treated, inhibition, significance) (Carcinogen: BENZO[A]PYRENE, 50-32-8, Dose [Inhibitor]: 0.03 MMOL/G DIET DAILY STARTING AT 63 D OF AGE (8 D PRIOR TO START OF CARCINOGEN TREATMENT) THROUGH 126 D OF AGE FOLLOWE, Route [Inhibitor]: ORAL, Species: MOUSE, Strain/Sex: ICR/FEMALE, Target Tissue: Type of Lesion: FORESTOMACH: TUMOR, Dose [Carcinogen]: 0.3 MG IN 0.2 ML CORN OIL ADMINISTERED 3/WK FOR 8 WK, Promoter: NONE USED)
1 | Cc1c(O)cc2c(c1C)OC(C)(CCCC(C)CCCC(C)CCCC(C)C)CC2 (centres undefined) | 6/50 (12%), 0/50 (0%), 100%, not calculated | 82%, 72%, 12%, not calculated | 39/50 (78%), 40/50 (80%), -3%, not calculated | 42/50 (84%), 24/50 (48%), 43%, p<0.05 | – | – | – | – | –
2 | N#CCc1c[nH]c2ccccc12 | – | – | – | – | 73%, 54%, 26%, not significant | 91%, 73%, 20%, not significant | 60%, 50%, 17%, not significant | 93%, 68%, 27%, not significant | 100%, 44%, 56%, p<0.01
